Laboratory results from patent publication US11020391B2, “CRMP2 sumoylation inhibitors and uses thereof” (ARIZONA BOARD OF REGENTS ON BEHALF OF THE UNIVERSITY OF …, priority 2015, dated 2021).

Key:
[1] = system: spared nerve injury model of neuropathic pain; experiment: Spared nerve injury model, mechanical hypersensitivity (paw withdrawal threshold); format: in vivo, rat; conditions: spinal administration 5 μg/10 μL; 7 days post-injury; n=6
Experimental: Rat Behavioral Pain Assay: Compound AZ002 reversed mechanical hypersensitivity in a model of nerve-injury induced chronic pain.
Data was analyzed using one-way ANOVA followed by Dunnett's Multiple Comparison Test using post injury baseline as control.
Indwelling intrathecal catheter: Rats were anesthetized (ketamine/xylazine anesthesia, 80/12 mg/kg i.p.; Sigma-Aldrich) and placed in a stereotaxic head holder. The cisterna magna was exposed and incised, and an 8-cm catheter (PE-10; Stoelting) was implanted terminating in the lumbar region of the spinal cord. Catheters were sutured (3-0 silk suture) into the deep muscle and externalized at the back of the neck; skin was closed with autoclips. After a recovery period of 5-7 days after implantation of the indwelling cannula, the spared nerve injury was induced.
Spared Nerve Injury (SNI): Under isoflurane anesthesia (5% induction, 2.0% maintenance in 2 L/min air), skin on the lateral surface of the left hind thigh was incised. […]
Mechanical Allodynia: Rats were allowed to acclimate within suspended wire mesh cages for 30 minutes prior to behavioral assessment. […] Paw withdrawal thresholds were calculated in grams using the Dixon non-parametric test and expressed as the Paw Withdrawal Threshold (mean±standard error; SEM) in GraphPad Prism 6.0. […]

[2] = system: TTX-S NaV1.7 currents in rat DRGs; experiment: Patch clamp TTX-S NaV1.7 currents in rat DRGs; format: cell-based; conditions: FIG. 5
Experimental: Culturing and Transfection of rat Primary Dorsal Root Ganglia (DRG) Neurons: Rat DRG neurons were isolated from 150-174 g Sprague-Dawley rats and then transfected using known procedures. In brief, removing dorsal skin and muscle and cutting the vertebral bone processes parallel to the dissection stage exposed DRGs. DRGs were then collected, trimmed at their roots, and digested in 3 ml bicarbonate free, serum free, sterile DMEM (Cat #11965, Thermo Fisher Scientific, Waltham, Mass.) solution containing neutral protease (3.125 mg·ml-1, Cat #LS02104, Worthington, Lakewood, N.J.) and collagenase Type I (5 mg·ml-1, Cat #LS004194, Worthington, Lakewood, N.J.) and incubated for 45 min at 37° C. under gentile agitation. Dissociated DRG neurons (˜1.5×106) were then gently centrifuged to collect cells and washed with DRG media DMEM containing 1% penicillin/streptomycin sulfate from 10 000 μg/ml stock, 30 ng.ml-1 nerve growth factor, and 10% fetal bovine serum (Hyclone). Collected cells were re-suspended in Nucleofector transfection reagent containing plasmids or siRNA at the working concentrations listed above. Then, cells were subjected to electroporation protocol O-003 in an Amaxa Biosystem (Lonza, Basel, Switzerland) and plated onto poly-D-lysine—and laminin-coated glass 12- or 15-mm coverslips. Transfection efficiencies were routinely between 20% and 30% with about ˜10% cell death. […]

[3] = system: human DRGs in a mixed glia-DRG co-culture; experiment: Cell morphology or health of human DRGs after overnight incubation; format: cell-based
[4] = PK profile of compound AZ002; conditions: in vivo
From the text: In some instances, compounds of the invention are provided as a pharmaceutical acceptable salt. Suitable pharmaceutical acceptable salts include those disclosed herein. In some embodiments, pharmaceutically acceptable salts of compounds of the invention provide a better pharmacokinetics.

[5] = system: TTX-S NaV1.7 currents in human DRGs; experiment: Patch clamp H-infinity subtracted NaV1.7 currents in human DRGs; format: cell-based; conditions: FIG. 5
Experimental: Patch Clamp Electrophysiology: Whole cell voltage clamp and current clamp recordings were performed at room temperature using an EPC 10 Amplifier-HEKA. The internal solution for voltage clamp CAD cell recordings contained (in mM): 110CsCl, 5 MgSO4, 10 EGTA, 4 ATP Na2-ATP, and 25 HEPES (pH 7.3, 290-310 mOsm/L) and external solution contained (in mM): 100 NaCl, 10 tetraethylammonium chloride, 1 CaCl2, 1 CdCl2, 1 MgCl2, 10 D-glucose, 4 4-aminopyridine, 0.1 NiCl2, 10 HEPES (pH 7.3, 310-315 mosM/L). For DRG and HEK293 cells the internal solution for voltage clamp contained (in mM): 140CsF, 1.1Cs-EGTA, 10 NaCl, and 15 HEPES (pH 7.3, 290-310 mOsm/L) and external solution contained (in mM): 140 NaCl, 3 KCl, 30 tetraethylammonium chloride, 1 CaCl2, 0.5 CdCl2, 1 MgCl2, 10 D-glucose, 10 HEPES (pH 7.3, 310-315 mosM/L). […]
Voltage clamp protocols: CAD and HEK293 cells were subjected to current-density (I-V) and fast-inactivation voltage protocols. […] The TTX-R peak current density was always measured at depolarizations near 0 mV and within 10 ms of the voltage step protocol. […] Thus, sodium current present at 150 ms following a voltage pulse to −60 mV was analyzed, an established method of isolating Nav1.9 current. […]

COc1cc(OC)cc(C(=O)Nc2ccc(N3CCN(C)CC3)cc2)c1 [AZ002]
reversal of mechanical hypersensitivity [1]: significantly reversed | inhibition of TTX-S NaV1.7 currents [2]: inhibits | effect on cell morphology or health [3]: does not affect cell morphology or health | Cmax [4]: 263 ng/mL | Tmax [4]: 2 h | half-life [4]: 348 min | AUC(0-t) ([4]; 0-24 hr): 2380 ng·h/mL | bioavailability ([4]; read-out: bioavailability (F)): 31% | inhibition of TTX-S NaV1.7 currents [5]: inhibits
